From the NIST ThermoML archive (doi:10.1021/je800355e)
Where “and” joins values, the source holds several entries; their conditions need not be identical. Identical values can stand only once. ± gives the expanded uncertainty stated by the source.

Assay: activity coefficient (dimensionless); of the first substance listed, at infinite dilution; xn = mol fraction of the nth substance listed
Conditions: 101 kPa, Liquid, x1 = 0

Row | Compound | activity coefficient (293.15 K, Chromatography) | activity coefficient (313.15 K, Chromatography) | activity coefficient (333.15 K, Chromatography) | activity coefficient (353.15 K, Chromatography) | activity coefficient (298.15 K, Chromatography) | activity coefficient (298.15 K) | activity coefficient (313.15 K) | activity coefficient (333.15 K) | activity coefficient (353.15 K)
1 | CC(C)CO [2-methyl-1-propanol] + CCCCCC[n+]1ccn(C)c1.O=S(=O)([N-]S(=O)(=O)C(F)(F)F)C(F)(F)F | 2.39 and 2.44 | 1.88 and 1.87 | 1.49 and 1.52 | 1.3 ± 0.1 |  |  |  |  | 
2 | CC(C)CO [2-methyl-1-propanol] + CCCCn1cc[n+](C)c1.COS(=O)(=O)[O-] |  | 1.29 ± 0.11 | 1.28 ± 0.1 | 1.12 ± 0.09 | 1.44 ± 0.12 |  |  |  | 
3 | CC(C)CO [2-methyl-1-propanol] + CCCCn1cc[n+](C)c1.F[P-](F)(F)(F)(F)F | 8.39 ± 0.57 | 5.74 ± 0.39 | 4.23 ± 0.29 | 3.23 ± 0.22 |  |  |  |  | 
4 | CC(C)(C)O [2-methylpropan-2-ol] + CCCCCC[n+]1ccn(C)c1.O=S(=O)([N-]S(=O)(=O)C(F)(F)F)C(F)(F)F | 1.68 and 1.66 | 1.4 and 1.35 | 1.15 and 1.16 | 1.04 and 1.03 |  |  |  |  | 
5 | CC(C)(C)O [2-methylpropan-2-ol] + CCCCn1cc[n+](C)c1.COS(=O)(=O)[O-] |  | 1.27 ± 0.1 | 1.19 ± 0.1 | 1.22 ± 0.1 | 1.38 ± 0.11 |  |  |  | 
6 | CC(C)(C)O [2-methylpropan-2-ol] + CCCCn1cc[n+](C)c1.F[P-](F)(F)(F)(F)F | 4.83 ± 0.33 | 3.68 ± 0.25 | 2.97 ± 0.2 | 2.45 ± 0.17 |  |  |  |  | 
7 | CCCCO [butan-1-ol] + CCCCCC[n+]1ccn(C)c1.O=S(=O)([N-]S(=O)(=O)C(F)(F)F)C(F)(F)F | 2.5 ± 0.19 | 2.02 ± 0.16 | 1.63 ± 0.12 | 1.33 ± 0.1 |  |  |  |  | 
8 | CCCCO [butan-1-ol] + CCCCn1cc[n+](C)c1.COS(=O)(=O)[O-] |  |  |  |  |  | 1.68 ± 0.14 | 1.44 ± 0.11 | 1.37 ± 0.1 | 1.21 ± 0.08
9 | CCCCO [butan-1-ol] + CCCCn1cc[n+](C)c1.F[P-](F)(F)(F)(F)F | 8.17 ± 0.56 | 5.9 ± 0.4 | 4.49 ± 0.31 | 3.43 ± 0.23 |  |  |  |  | 
10 | CCC(C)O (stereo unspecified) [butan-2-ol] + CCCCCC[n+]1ccn(C)c1.O=S(=O)([N-]S(=O)(=O)C(F)(F)F)C(F)(F)F | 2.03 ± 0.16 | 1.67 and 1.65 | 1.37 and 1.38 | 1.2 and 1.21 |  |  |  |  | 
11 | CCC(C)O (stereo unspecified) [butan-2-ol] + CCCCn1cc[n+](C)c1.COS(=O)(=O)[O-] |  | 1.31 ± 0.11 | 1.27 ± 0.1 | 1.21 ± 0.1 | 1.45 ± 0.12 |  |  |  | 
12 | CCC(C)O (stereo unspecified) [butan-2-ol] + CCCCn1cc[n+](C)c1.F[P-](F)(F)(F)(F)F | 6.47 ± 0.44 | 4.8 ± 0.33 | 3.69 ± 0.25 | 2.87 ± 0.2 |  |  |  |  | 
13 | CCO [ethanol] + CCCCCC[n+]1ccn(C)c1.O=S(=O)([N-]S(=O)(=O)C(F)(F)F)C(F)(F)F | 1.85 and 1.82 | 1.49 and 1.47 | 1.24 and 1.23 | 1.05 and 1.03 |  |  |  |  | 
14 | CCO [ethanol] + CCCCn1cc[n+](C)c1.COS(=O)(=O)[O-] |  | 0.61 ± 0.05 | 0.62 ± 0.05 | 0.59 ± 0.05 | 0.64 ± 0.05 |  |  |  | 
15 | CCO [ethanol] + CCCCn1cc[n+](C)c1.F[P-](F)(F)(F)(F)F | 3.81 ± 0.26 | 2.94 ± 0.2 | 2.32 ± 0.16 | 1.85 ± 0.12 |  |  |  |  | 
16 | CO [methanol] + CCCCCC[n+]1ccn(C)c1.O=S(=O)([N-]S(=O)(=O)C(F)(F)F)C(F)(F)F | 1.54 and 1.5 | 1.27 and 1.26 | 1.08 and 1.05 | 0.93 and 0.91 |  |  |  |  | 
17 | CO [methanol] + CCCCn1cc[n+](C)c1.COS(=O)(=O)[O-] |  | 0.36 ± 0.04 | 0.33 ± 0.04 | 0.38 ± 0.04 | 0.39 ± 0.04 |  |  |  | 
18 | CO [methanol] + CCCCn1cc[n+](C)c1.F[P-](F)(F)(F)(F)F | 2.59 ± 0.18 | 2.06 ± 0.14 | 1.67 ± 0.11 | 1.36 ± 0.09 |  |  |  |  | 
19 | CCCO [propan-1-ol] + CCCCCC[n+]1ccn(C)c1.O=S(=O)([N-]S(=O)(=O)C(F)(F)F)C(F)(F)F | 2.08 and 2.09 | 1.68 and 1.65 | 1.38 ± 0.1 | 1.19 and 1.18 |  |  |  |  | 
20 | CCCO [propan-1-ol] + CCCCn1cc[n+](C)c1.COS(=O)(=O)[O-] |  | 0.88 ± 0.07 | 0.89 ± 0.07 | 0.82 ± 0.07 | 0.96 ± 0.08 |  |  |  | 
21 | CCCO [propan-1-ol] + CCCCn1cc[n+](C)c1.F[P-](F)(F)(F)(F)F | 5.53 ± 0.38 | 4.14 ± 0.28 | 3.18 ± 0.22 | 2.45 ± 0.17 |  |  |  |  | 
22 | CC(C)O [propan-2-ol] + CCCCCC[n+]1ccn(C)c1.O=S(=O)([N-]S(=O)(=O)C(F)(F)F)C(F)(F)F | 1.95 ± 0.15 | 1.56 and 1.53 | 1.17 and 1.15 | 1.08 and 1.02 |  |  |  |  | 
23 | CC(C)O [propan-2-ol] + CCCCn1cc[n+](C)c1.COS(=O)(=O)[O-] |  | 0.94 ± 0.08 | 0.91 ± 0.07 | 0.88 ± 0.07 | 1.03 ± 0.08 |  |  |  | 
24 | CC(C)O [propan-2-ol] + CCCCn1cc[n+](C)c1.F[P-](F)(F)(F)(F)F | 4.8 ± 0.33 | 3.64 ± 0.25 | 2.83 ± 0.19 | 2.25 ± 0.15 |  |  |  |  | 
